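A five-concentration, 48-hour dose response in 96-well plates underlies each endpoint, interpolated linearly between surrounding concentrations. TGI: concentration producing complete growth inhibition.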
Columns and labels:
Assay in all cases: inhibition of tumour cell growth, NCI panel, 48 h
RPMI-8226 leukemia = test system: RPMI-8226 leukemia
A549 NSCLC = test system: A549 NSCLC
HL-60(TB) leukemia = test system: HL-60(TB) leukemia
SR leukemia = test system: SR leukemia
NCI-H460 lung = test system: NCI-H460 lung
ACHN renal = test system: ACHN renal
SF-268 CNS = test system: SF-268 CNS
CAKI-1 renal = test system: CAKI-1 renal
MDA-MB-231 breast = test system: MDA-MB-231 breast
MCF7 breast = test system: MCF7 breast
SNB-75 CNS = test system: SNB-75 CNS
OVCAR-3 ovarian = test system: OVCAR-3 ovarian
SF-295 CNS = test system: SF-295 CNS
SN12C renal = test system: SN12C renal

Row | SMILES | TGI (RPMI-8226 leukemia) [µM] | TGI (A549 NSCLC) [µM] | TGI (HL-60(TB) leukemia) [µM] | TGI (SR leukemia) [µM] | TGI (NCI-H460 lung) [µM] | TGI (ACHN renal) [µM] | TGI (SF-268 CNS) [µM] | TGI (CAKI-1 renal) [µM] | TGI (MDA-MB-231 breast) [µM] | TGI (MCF7 breast) [µM] | TGI (SNB-75 CNS) [µM] | TGI (OVCAR-3 ovarian) [µM] | TGI (SF-295 CNS) [µM] | TGI (SN12C renal) [µM]
1 | O=C(/C=C/c1ccc(Oc2cc(C(=O)/C=C/c3ccc(O)cc3)c(O)cc2O)cc1)c1ccc(O)cc1O | 8.09 | 99.5 | > 100 | > 100 | 29.8 | 22.2 | 28.3 | 18.1 | > 100 | 19.5 | 9.68 | 11.9 | 18.5 | 17
2 | CSC(=S)Nc1cccc(C)n1 | > 100 | > 100 | > 100 | > 100 | > 100 | > 100 | > 100 | > 100 | > 100 | > 100 | > 100 | > 100 | > 100 | > 100
3 | NS(=O)(=O)c1nnc(NS(=O)(=O)C(F)(F)F)s1 | > 100 | > 100 | > 100 | > 100 | > 100 | > 100 | > 100 | > 100 | > 100 | > 100 | > 100 | > 100 | > 100 | –
4 | CCC1OC2C(CC=C(C)C)=C3OC(C)(O)C(C)(CC)C(OC(C)=O)C3=C3OC(=O)C=C1C32 (stereo not drawn) | > 100 | > 100 | > 100 | > 100 | 84.6 | > 100 | > 100 | 62.1 | 36.7 | > 100 | 52.1 | > 100 | 42.2 | 41.2
5 | c1cc2nnc1SCCCSc1ccc(nn1)SCCCS2 | > 100 | > 100 | > 92.4 | > 100 | > 100 | > 100 | > 100 | > 100 | > 100 | > 100 | > 56.6 | > 74.1 | > 100 | > 95.6
6 | O=C1C(Cl)C2(CC(/C=C/c3ccccc3)=NN2c2cccc(S(=O)(=O)O)c2)N1c1nc2ccccc2s1 (stereo not drawn) | 33.8 | 30.2 | 33.8 | 30 | 46.6 | 30.9 | 43.4 | 22.6 | 29.4 | 36.6 | 30.3 | – | – | 36.1
7 | NC1CC(=O)c2c1sc(Cl)c2Cl (stereo not drawn) | > 100 | > 100 | > 100 | > 100 | > 100 | > 100 | > 100 | > 100 | > 100 | > 100 | > 100 | > 100 | – | > 100
8 | C=C1CC(c2ccc(OCCCN3C(=O)c4ccccc4C3=O)cc2)OC1=O (stereo not drawn) | 3.68 | 39.2 | 5.22 | 8.57 | 8.42 | 10.4 | 15.4 | 6.54 | 13 | 6.46 | 23.7 | 5.31 | 25.5 | 12.3
9 | Cc1ccc(-c2nc(N/N=C/C=C/c3ccccc3)c3ccccc3n2)cc1 | > 100 | > 100 | > 100 | > 100 | > 100 | 75.9 | > 100 | > 100 | 47.9 | 75.9 | > 100 | > 100 | > 100 | 99
10 | CC(=O)Oc1ccc(/C=C/C(=O)OCCCOC(=O)/C=C/c2ccc(OC(C)=O)c(OC(C)=O)c2)cc1OC(C)=O | > 100 | > 100 | 18.2 | > 100 | > 100 | > 100 | > 100 | > 100 | > 100 | > 100 | > 100 | > 100 | > 100 | > 100
11 | Cc1cn(CCCCC2=NCCCN2)c(=O)[nH]c1=O | > 100 | > 54.4 | > 19.7 | > 41 | > 67.8 | > 31 | > 24.2 | > 23.4 | > 42 | > 34.4 | > 28.6 | > 33.1 | > 65.5 | > 100
12 | COC(=O)/C=C(\CC(=O)OC)n1nnnc1[C@@H]1C[C@H](COC(c2ccccc2)(c2ccccc2)c2ccccc2)[C@H]2OC(C)(C)O[C@H]21 | > 100 | > 100 | > 100 | > 100 | – | > 100 | > 100 | > 100 | > 100 | > 100 | > 100 | > 100 | > 100 | > 100
